The source of these data is patent publication EP3388439A1, “BIOTIN-CONJUGATED N-ACETYL GLYCOL SPLIT HEPARIN” (Leadiant Biosciences SA, priority 2017, dated 2018).

One experiment deals with T1, heparanase (Homo sapiens, UniProt Q9Y251).
T1 sequence (Q9Y251 158-543 limits assumed): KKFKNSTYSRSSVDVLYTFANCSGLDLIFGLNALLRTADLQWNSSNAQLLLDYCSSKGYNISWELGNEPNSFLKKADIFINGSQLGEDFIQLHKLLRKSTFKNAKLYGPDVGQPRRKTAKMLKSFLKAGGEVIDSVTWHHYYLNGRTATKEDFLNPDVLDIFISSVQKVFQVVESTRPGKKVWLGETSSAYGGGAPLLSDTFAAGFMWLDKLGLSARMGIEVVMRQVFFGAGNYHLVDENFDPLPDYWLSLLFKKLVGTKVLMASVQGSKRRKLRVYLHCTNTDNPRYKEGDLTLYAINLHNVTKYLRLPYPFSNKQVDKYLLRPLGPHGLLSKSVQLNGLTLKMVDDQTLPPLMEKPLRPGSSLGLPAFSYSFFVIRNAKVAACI
T1 sequence (Q9Y251 36-109 limits assumed): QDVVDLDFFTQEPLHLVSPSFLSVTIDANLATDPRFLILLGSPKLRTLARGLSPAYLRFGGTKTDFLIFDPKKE
Description: Fondaparinux heparanase assay (AGA*IA assay), colorimetric WST-1. The note with it: 2.5 nM heparanase, 100 µM fondaparinux, pH 5.0, 3 h at 37°C. The class given is biochemical. On the procedure: In order to determinate their activity as potent heparanase inhibitor, compounds were tested in a simple, accurate and robust microplate assay based on the cleavage of the synthetic heparin fragment, the pentasaccharide Fondaparinux (AGA*IA). This assay was originally developed by Hammond and coworkers [Hammond E, Li CP, Ferro V. Development of a colorimetric assay for heparanase activity suitable for kinetic analysis and inhibitor screening. Anal. Biochem. 2010, 396(1), 112-116], where Fondaparinux corresponds to the methyl glycoside of the antithrombin III (ATIII)-activating pentasaccharide sequence of heparin. Fondaparinux is cleaved by heparanase to generate a reducing disaccharide, which can be quantitatively measured via a colorimetric or a fluorescence assay, the last by the fluorescent sensor polymer-H [Schiemann S, Lühn S, Alban S. Development of both colorimetric and fluorescence heparinase activity assays using fondaparinux as substrate. […]
Assay was carried out with 100 µl/well of assay solution containing 40 mM sodium acetate buffer (pH 5.0), 100 µM fondaparinux, 2.5 nM heparanase and serial dilutions of test compounds (tested in triplicate). […] Then, the absorbance at 560 nm was measured through a microplate reader (Victor 3, Perkin Elmer).
Finally, the measurements were corrected by subtracting both the reagent background and the inner absorbance value of test compound. […]
(In general: Tetrazolium assays rely on reduction of a dye to a coloured formazan, in cell work by metabolically active cells.)

Experiment [1] relates to U87MG (human glioblastoma astrocytoma). Description: Cell adhesion assay on matrigel coated wells. The class given is cell-based. The conditions noted are these: treated 18-20h. On the procedure: Cell surface, non-integrin molecules such as heparan sulfate proteoglycans (HSPGs) may be involved in the regulation of early adhesive stages of cell-ECM interactions. A cell adhesion assay has been employed to determine if the newly designed heparanase inhibitors were able to interfere with adhesion properties of cancer cells.
For the assay set-up, U87MG (human glioblastoma astrocytoma) cells were treated for 18-20h with test compounds, in complete medium supplemented with 10% FCS. Then, cells were collected, washed in complete medium, and added to matrigel coated wells in triplicate, at previously identified optimal seeding density, and incubated at 37 °C in complete medium for times ranging from 15 minutes to 4h (Goldshmidt et al, FASEB, 2003). After incubation, the wells were washed three times with serum-free medium and the remaining firmly attached cells were stained with crystal violet 0.1 reagent. Optical density was measure at 500 nm by Victor 3 (Perkin-Elmer) plate analyzer. Each experiment was repeated three times.

For experiment [2] the test system is unchanged. Description: SRB Cell Cytotoxicity Assay. The class given is cell-based. The note with it: 72h. The text has this:
(§1) SRB Cell Cytotoxicity Assay is based on the quantitative staining of cellular proteins by sulforhodamine B (SRB). This assay can be used for high-throughput drug screening (Vichai & Kirkitara, Nature Protocol. 2006, 1, 112). Sulforhodamine B is an anionic aminoxanthene dye that forms an electrostatic complex with the basic amino acid residues of proteins under moderately acid conditions, which provides a sensitive linear response.
(§2) To assess a putative antiproliferative activity of the selected compounds, HT1080 (human fibrosarcoma), U87MG (human glioblastoma astrocytoma) and U2OS (human osteosarcoma) cell lines were treated for 72h, in triplicate, with increasing concentrations of heparanase inhibitors. Inhibition of cell proliferation was then measured by the classical colorimetric SRB Cell Cytotoxicity assay. Absorbance was measured by spectrophotometer at a wavelength of 510 nm and cell proliferation was determined as percent with respect to control cells (cells treated with the vehicle alone). EC50 values were then determined by GraphPad Prism.
(§3) Results are summarized in the following Table 3, reporting the ability of anti-heparanase agents (test compounds) to reduce tumor growth (cytotoxic effect) on three tumor cell lines, evaluated at three concentrations. Results were expressed as a percentage of growth versus control.

In experiment [3] the test system is HT1080 (human fibrosarcoma). Description: SRB Cell Cytotoxicity Assay. The class given is cell-based. The conditions noted are these: 72h.
Text: as §1, §2, §3

The test system of experiment [4] is U2OS (human osteosarcoma). Description: SRB Cell Cytotoxicity Assay. The class given is cell-based. The note with it: 72h.
Text: as §1, §2, §3

The test system of experiment [5] is luciferase-labelled CAG myeloma cells. The conditions noted are these: NOD/SCID mice, 1000 µg/mouse intraperitoneal twice a day from day 9 to day 29; Figure 2.
Description: Briefly, luciferase-labelled CAG myeloma cells (5x106; same cells) were injected subcutaneously into NOD/SCID mice (n=5). Mice were treated with compounds (1000 µg/mouse, injected intraperitoneal twice a day, starting on day 9 of cell inoculation).
Mice were injected with cells on day ONE and the first injection of compounds was given starting on day NINE, twice a day, including weekends. Tumor growth was examined by IVIS imaging prior to the first injection of compounds and once a week thereafter. The experiment was terminated on day TWENTYNINE (Figure 2).
IVIS imaging. Bioluminescent imaging of the luciferase-expressing tumors was performed with a highly sensitive, cooled charge coupled device (CCD) camera mounted in a light-tight specimen box (IVIS; Xenogen Corp., Waltham, MA). Briefly, mice were injected intraperitoneally with D-luciferin substrate at 150 mg/kg, anesthetized and placed onto a stage inside the light-tight camera box, with continuous exposure to isoflurane (EZAnesthesia, Palmer, PA). Light emitted from the bioluminescent cells was detected by the IVIS camera system with images quantified for tumor burden using a log-scale color range set at 5×10^4 to 1×10^7 and measurement of total photon counts per second (PPS) using Living Image software (Xenogen).

A word on the IC50: it is the concentration needed to halve the response being measured. Low values mean higher potency, high ones lower potency.

Consider “N-desulfated N-acetylated glycol split heparin -(GGGS)3-NH-(CH2)5-NH-Biotin with a substitution degree on the R1 and/or R1' positions of about 7% [SST0761NA1]”, for which, on heparanase, the IC50 was around 3 nM. The “Test compounds adhesion versus basal (100%)” value in experiment [1] (0.1 µM) turned out to be 57.55%; in experiment [1] (1 µM), 13.25%; in experiment [1] (10 µM) it was 21.46%. Besides, the “Percentage tumor growth versus control U87MG” value in experiment [2] (11.1 µM) is on record as 84.47%; in experiment [2] (33.3 µM), 75.00%; in experiment [2] (100 µM) it was 73.23%. The “Percentage tumor growth versus control HT1080” value in experiment [3] (11.1 µM) was 99.98%; in experiment [3] (33.3 µM) it was 98.83%; in experiment [3] (100 µM) it was 75.02%. Also, the “Percentage tumor growth versus control U2OS” value came to 85.3% in experiment [4] (11.1 µM), 79.5% in experiment [4] (33.3 µM) and 69.3% in experiment [4] (100 µM). Further, in experiment [5], the “inhibition of CAG myeloma cell growth” value is “reached statistical significance”.

Turning to “N-desulfated N-acetylated glycol split heparin -Reducing end-NH-CH2-1,2,3-Triazole-4, N-Glycine-CONH-(CH2)5-NH-Biotin with a substitution degree on the R3 position of about 2 % [SST0764NA1]”, the IC50 on heparanase was around 4 nM. For the same substance, the entries for the “Test compounds adhesion versus basal (100%)” value in experiment [1] (0.1 µM), in experiment [1] (1 µM) and in experiment [1] (10 µM) were 83.21%, 19.82% and 12.79%, respectively. Further, the results for the “Percentage tumor growth versus control U87MG” value in experiment [2] (11.1 µM), in experiment [2] (33.3 µM) and in experiment [2] (100 µM) were 90.61%, 86.29% and 76.44%, respectively. Further, the “Percentage tumor growth versus control HT1080” value in experiment [3] (11.1 µM) is ~ 100%; in experiment [3] (33.3 µM), ~ 100%; in experiment [3] (100 µM), 95.15%. The “Percentage tumor growth versus control U2OS” value stood at 80.70% in experiment [4] (11.1 µM), 76.00% in experiment [4] (33.3 µM) and 66.90% in experiment [4] (100 µM).
